Test results as given in patent publication US20160000911A1, “COMBINATION THERAPY OF A TYPE II ANTI-CD20 ANTIBODY WITH INCREASED ANTIBODY DEPENDENT CELLULAR CYTOTOXITY (ADCC)” (ROCHE GLYCART AG, priority 2008, published 2016).

What was measured:
[1] = tested on: WSU-DLCL2 human B-Cell Non-Hodgkin-Lymphoma (NHL); assay: Tumor growth inhibition study in vivo, WSU-DLCL2 xenograft (Example 1); set-up: species or system SCID beige mice
Description: Antibody buffer included histidine, trehalose and polysorbate 20.
Cyclophposphamide and vincristine were purchased as clinical formulation from Baxter Oncology GmbH, Halle, Germany or medac, Gesellschaft für klinische Spezialpräparate mbH, Hamburg, Germany, respectively. Dilution was adjusted from reconstituted stock solution.
WSU-DLCL2 human Non-Hodgkin-Lymphoma (NHL) cells were kindly provided from Hoffmann-La Roche, Inc., Nutley, N.J., USA. […] Passage 4 was used for transplantation. Cells were co-injected with Matrigel.
Continuous health monitoring was carried out on regular basis.
Animal treatment started at the day of randomisation 9 days after cell transplantation. […] The corresponding vehicle was administered on the same days. Cyclophosphamide and vincristine were given i.v. once weekly on day 9, 15, 23, 30, 37, 44, 51 and 58 at 25 mg/kg or 0.25 mg/kg, respectively. In the combination therapy groups, both antibodies were administered 24 hours after the chemotherapeutic agents on day 10, 16, 24, 31, 38, 45, 52 and 59.

[2] = molecular target: T1, CD20 on Raji cells (ATCC-No. CCL-86) (Homo sapiens, UniProt P11836); assay: Ratio of the binding capacities to CD20 on Raji cells compared to rituximab (direct immunofluorescence, Cy5, FACSArray); conditions: MFI at EC50 of Cy5-labeled antibodies, 30 min at 4° C.
T1 construct: generated by direct immunofluorescence using the Burkitt's lymphoma cell line Raji (ATCC-No. CCL-86); host or cells: Raji (Burkitt's lymphoma cell line)
T1 sequence (P11836 1-297): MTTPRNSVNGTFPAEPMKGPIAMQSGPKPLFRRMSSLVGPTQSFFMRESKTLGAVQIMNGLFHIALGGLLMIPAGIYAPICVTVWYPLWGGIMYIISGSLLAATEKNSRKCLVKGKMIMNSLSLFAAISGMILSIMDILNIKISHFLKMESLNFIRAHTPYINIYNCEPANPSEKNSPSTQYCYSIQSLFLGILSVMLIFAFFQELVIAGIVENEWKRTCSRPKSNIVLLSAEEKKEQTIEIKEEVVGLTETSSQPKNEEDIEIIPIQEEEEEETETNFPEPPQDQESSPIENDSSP
Method: MFI is the mean fluorescent intensity. The “Cy5-labeling ratio” as used herein means the number of Cy5-label molecules per molecule antibody.
Raji cells (ATCC-No. CCL-86) were maintained in culture in RPMI-1640 medium (PanBiotech GmbH, Cat.-No. PO4-18500) containing 10% FCS (Gibco, Cat.-No. 10500-064). […] 5*10^5 cells per sample were stained for 30 min at 4° C. Afterwards, cells were washed in culture medium. Propidium iodide (PI) staining was used to exclude dead cells.
Then the ratio of the binding capacities to CD20 on Raji cells (ATCC-No. CCL-86) is calculated according to the following formula: […]

anti-CD20 antibody B-HH6-B-KV1 GE: Type II anti-CD20 antibody; humanized B-Ly1, glycoengineered B-HH6-B-KV1 with increased ADCC (WO 2005/044859, WO 2007/031875)
tumor growth inhibition ([1]; day 35 after cell transplantation, compared to the control group, i.v. once weekly, antibodies 30 mg/kg, cyclophosphamide 25 mg/kg, vincristine 0.25 mg/kg): 85%
Tumor growth delay, T − C value ([1]; median time to reach 1500 mm^3, treatment minus control, until day 64 after cell transplantation): 19 days
binding capacity to CD20 on Raji cells compared to rituximab [2]: reduces binding capacity
